Measured values taken from patent publication US6437128B1, “Cribrostatins 3-5” (Arizona Board of Regents, priority 2001, dated 2002).
≈ marks a conversion by molar mass, not a printed value. Where “and” joins values, the source holds several entries; their conditions need not be identical. Equal entries are not always repeated.

Experiments:
SF-268 = experiment: NCI 60-cell screen; type: cell-based, human; conditions: Homo sapiens, averaged, quadruplicate, upper limit 10^−5 M, read-out: negative log10 GI50 (converted)
NCI-H226 = experiment: NCI 60-cell screen; type: cell-based, human; conditions: Homo sapiens, averaged, quadruplicate, upper limit 10^−5 M, read-out: negative log10 GI50 (converted)
NCI-H522 = experiment: NCI 60-cell screen; type: cell-based, human; conditions: Homo sapiens, averaged, quadruplicate, upper limit 10^−5 M, read-out: negative log10 GI50 (converted)
[1] = system: Neisseria gonorrhoeae (ATCC 49226); experiment: Antimicrobial disk diffusion; type: cell-based
K-562 = experiment: NCI 60-cell screen; type: cell-based, human; conditions: Homo sapiens, K562, averaged, quadruplicate, upper limit 10^−5 M, read-out: negative log10 GI50 (converted)
SK-N-SH (Neuroblast) = experiment: ASU-CRI minipanel of human cancer cell lines; type: cell-based
Source text: (§1) Individual cell line response values are provided in the Experimental.

FADU (Pharynx-sq) = experiment: ASU-CRI minipanel of human cancer cell lines; type: cell-based
Source text: as §1

KM20L2 (Colon) = experiment: ASU-CRI minipanel of human cancer cell lines; type: cell-based; conditions: Homo sapiens, KM-20L2, read-out: GI50
Source text: as §1

DU-145 (Prostate) = experiment: ASU-CRI minipanel of human cancer cell lines; type: cell-based; conditions: Homo sapiens; Prostate DU-145; read-out: GI50
Source text: as §1

OVCAR-3 (Ovarian) = experiment: ASU-CRI minipanel of human cancer cell lines; type: cell-based; conditions: Homo sapiens; Ovarian OVCAR-3; read-out: GI50
Source text: as §1

BXPC-3 (Pancreas-a) = experiment: ASU-CRI minipanel of human cancer cell lines; type: cell-based; conditions: Homo sapiens; Pancreas-a BXPC-3; read-out: GI50
Source text: as §1

SF-295 (CNS) = experiment: ASU-CRI minipanel of human cancer cell lines; type: cell-based; conditions: Homo sapiens; CNS SF-295; read-out: GI50
Source text: as §1

NCI-H460 (Lung-NSC) = experiment: ASU-CRI minipanel of human cancer cell lines; type: cell-based; conditions: Homo sapiens, read-out: GI50
Source text: as §1

SW-1736 (Thyroid ca) = experiment: ASU-CRI minipanel of human cancer cell lines; type: cell-based; conditions: Thyroid ca SW-1736
Source text: as §1

HS578T = experiment: NCI 60-cell screen; type: cell-based, human; conditions: Homo sapiens, Hs-578T, averaged, quadruplicate, upper limit 10^−5 M, read-out: negative log10 GI50 (converted)
IGROV1 = experiment: NCI 60-cell screen; type: cell-based, human; conditions: Homo sapiens, IGROV-1, averaged, quadruplicate, upper limit 10^−5 M, read-out: negative log10 GI50 (converted)
MOLT-4 = experiment: NCI 60-cell screen; type: cell-based, human; conditions: Homo sapiens, averaged, quadruplicate, upper limit 10^−5 M, read-out: negative log10 GI50 (converted)
[2] = system: P388 lymphocytic leukemia; experiment: in vitro murine P388 lymphocytic leukemia (PS) cell growth inhibition; type: cell-based
Source text: The fractions obtained from the 1988-89 recollection of Cribrochalina so. (See: Pettit, G. R.; Collins, J. C.; Herald, D. L.; Doubek, D. L.; Boyd, M. R.; Schmidt, J. M.; Hooper, J. N. A.; Tackett, L. P. Can. J. Cheim. 1992, 70, 1170-1175) beginning with the 195 g dichloromethane partition fraction were re-examined guided by bioassay results using the murine P388 lymphocytic leukemia.
as §1

[3] = system: Escherichia coli (ATCC 25922); experiment: Antimicrobial disk diffusion; type: cell-based
MDA-N = experiment: NCI 60-cell screen; type: cell-based, human; conditions: Homo sapiens, averaged, quadruplicate, upper limit 10^−5 M, read-out: negative log10 GI50 (converted)
ACHN = experiment: NCI 60-cell screen; type: cell-based, human; conditions: Homo sapiens, averaged, quadruplicate, upper limit 10^−5 M, read-out: negative log10 GI50 (converted)
[4] = system: Streptococcus pneumoniae (ATCC 6303); experiment: Antimicrobial disk diffusion; type: cell-based; conditions: listed as 5
MDA-MB-231/ATCC = experiment: NCI 60-cell screen; type: cell-based, human; conditions: Homo sapiens, averaged, quadruplicate, upper limit 10^−5 M, read-out: negative log10 GI50 (converted)
OVCAR4 = experiment: NCI 60-cell screen; type: cell-based, human; conditions: Homo sapiens, OVCAR-4, averaged, quadruplicate, upper limit 10^−5 M, read-out: negative log10 GI50 (converted)
HOP-62 = experiment: NCI 60-cell screen; type: cell-based, human; conditions: Homo sapiens, averaged, quadruplicate, upper limit 10^−5 M, read-out: negative log10 GI50 (converted)
KM 12 = experiment: NCI 60-cell screen; type: cell-based, human; conditions: Homo sapiens, KM12, averaged, quadruplicate, upper limit 10^−5 M, read-out: negative log10 GI50 (converted)
[5] = system: Staphylococcus aureus (ATCC 29213); experiment: Antimicrobial disk diffusion; type: cell-based
[6] = system: NCI 60-cell in vitro panel; experiment: NCI 60-cell in vitro panel, mean panel; type: cell-based, human; conditions: Homo sapiens, 60 cell; average ±SEM from the 40 cell lines that yielded GI50 values for both 4a and 5
Source text: as §1

MCF7 = experiment: NCI 60-cell screen; type: cell-based, human; conditions: Homo sapiens, averaged, quadruplicate, upper limit 10^−5 M, read-out: negative log10 GI50 (converted)
SK-MEL-5 = experiment: NCI 60-cell screen; type: cell-based, human; conditions: Homo sapiens, averaged, quadruplicate, upper limit 10^−5 M, read-out: negative log10 GI50 (converted)
OVCAR-8 = experiment: NCI 60-cell screen; type: cell-based, human; conditions: Homo sapiens, averaged, quadruplicate, upper limit 10^−5 M, read-out: negative log10 GI50 (converted)
MALME-3M = experiment: NCI 60-cell screen; type: cell-based, human; conditions: Homo sapiens, averaged, quadruplicate, upper limit 10^−5 M, read-out: negative log10 GI50 (converted)
[7] = system: Enterococcus faecalis (ATCC 29212); experiment: Antimicrobial disk diffusion; type: cell-based
SW-620 = experiment: NCI 60-cell screen; type: cell-based, human; conditions: Homo sapiens, averaged, quadruplicate, upper limit 10^−5 M, read-out: negative log10 GI50 (converted)
RPMI-8226 = experiment: NCI 60-cell screen; type: cell-based, human; conditions: Homo sapiens, averaged, quadruplicate, upper limit 10^−5 M, read-out: negative log10 GI50 (converted)
COLO 205 = experiment: NCI 60-cell screen; type: cell-based, human; conditions: Homo sapiens, averaged, quadruplicate, upper limit 10^−5 M, read-out: negative log10 GI50 (converted)
UACC-62 = experiment: NCI 60-cell screen; type: cell-based, human; conditions: Homo sapiens, averaged, quadruplicate, upper limit 10^−5 M, read-out: negative log10 GI50 (converted)
MCF7/ADR-RES = experiment: NCI 60-cell screen; type: cell-based, human; conditions: Homo sapiens, averaged, quadruplicate, upper limit 10^−5 M, read-out: negative log10 GI50 (converted)
SR = experiment: NCI 60-cell screen; type: cell-based, human; conditions: Homo sapiens, averaged, quadruplicate, upper limit 10^−5 M, read-out: negative log10 GI50 (converted)
CCRF-CEM = experiment: NCI 60-cell screen; type: cell-based, human; conditions: Homo sapiens, averaged, quadruplicate, upper limit 10^−5 M, read-out: negative log10 GI50 (converted)

## C/C=C(/C)C(=O)OC[C@H]1C2=C(C=C3[C@H]4c5c(O)c(OC)c(C)c(O)c5C(=O)[C@@H](C(=O)N31)N4C)C(=O)C(C)=C(OC)C2=O [Cribrostatin 4, cribrostatin 4]
SF-268
  GI50: 9.55 µM
NCI-H226
  GI50: 7.94 µM
NCI-H522
  GI50: 4.17 µM
[1]
  Minimum inhibitory concentration: 6.25-12.5 μg/disk
K-562
  GI50: 4.37 µM
SK-N-SH (Neuroblast)
  GI50: 3.6 µg/mL (≈ 6.22 µM)
FADU (Pharynx-sq)
  GI50: 0.26 µg/mL (≈ 0.449 µM)
KM20L2 (Colon)
  GI50: > 10 µg/mL
DU-145 (Prostate)
  GI50: > 10 µg/mL
OVCAR-3 (Ovarian)
  GI50: 2.2 µg/mL (≈ 3.8 µM)
BXPC-3 (Pancreas-a)
  GI50: 5.6 µg/mL (≈ 9.68 µM)
SF-295 (CNS)
  GI50: > 10 µg/mL
NCI-H460 (Lung-NSC)
  GI50: > 10 µg/mL
SW-1736 (Thyroid ca)
  GI50: > 10 µg/mL
HS578T
  GI50: 8.71 µM
IGROV1
  GI50: 8.51 µM
MOLT-4
  GI50: 1910 nM
[2]; Mouse Leukemia P388, read-out: GI50
  GI50: 24.6 µg/mL (≈ 42.5 µM)
[2]; in vitro P388 lymphocytic leukemia, listed as cribrostatin 4
  PS ED50 (P388 ED50): 25 µg/mL and 24 µg/mL
[3]
  Minimum inhibitory concentration: * (No inhibition at 100 μg/disk)
MDA-N
  GI50: 2190 nM
ACHN
  GI50: 7.94 µM
[4]
  Minimum inhibitory concentration: 6.25-12.5 μg/disk
MDA-MB-231/ATCC
  GI50: 2690 nM
OVCAR4
  GI50: 1820 nM
HOP-62
  GI50: 7.59 µM
KM 12
  GI50: 9.12 µM
[5]
  Minimum inhibitory concentration: * (No inhibition at 100 μg/disk)
[6]
  GI50: 5.01 µM
MCF7
  GI50: 8.13 µM
SK-MEL-5
  GI50: 8.13 µM
OVCAR-8
  GI50: 4.27 µM
MALME-3M
  GI50: 389 nM
[7]
  Minimum inhibitory concentration: * (No inhibition at 100 μg/disk)
SW-620
  GI50: 6.92 µM
RPMI-8226
  GI50: 6.17 µM
COLO 205
  GI50: 8.13 µM
UACC-62
  GI50: 9.77 µM
MCF7/ADR-RES
  GI50: 6.76 µM
SR
  GI50: 3.8 µM
CCRF-CEM
  GI50: 1700 nM
